Reference: ChEMBL document CHEMBL4706569, “Hydroxy-corrole and its gallium(III) complex as new photosensitizer for photodynamic therapy against breast carcinoma” (Eur J Med Chem, 2020)
Active and inactive are the calls of the source. The calls are words filed in the database; no cut-off is given here.

Tests used:
[1] = Drug uptake in human MDA-MB-231 cells at 10 uM by flow cytometric analysis; format: ADME, cell-based; conditions: mda-mb-231, 10 µM, TDE = time-dependent effect
[2] = Phototoxicity index, ratio of IC50 for cytotoxicity against human MDA-MB-231 cells measured under dark condition to IC50 for phototoxicity against human MDA-MB-231 cells upon LED light irradiation
[3] = system: MDA-MB-231; experiment: Induction of ROS generation in human MDA-MB-231 cells at 2.5 uM preincubated for 4 hrs followed by 625 +/- 2 nanometer LED light irradiation for 1 hr and measured after 18 hrs by DCFH-DA staining based fluorescence microscopy; format: functional, cell-based; conditions: time 23.0 hrs
[4] = Absorption property of the compound in DMF assessed as soret band absorption wavelength at 1 uM by UV-visible spectrophotometric method; format: physicochemical
[5] = system: HUVEC; experiment: Phototoxicity against HUVEC assessed as reduction in cell viability preincubated for 4 hrs followed by irradiation with 0.3 W/cm2 of 625 +/- 2 nanometer LED light for 1 hr and measured after 42 hrs by MTT assay; format: cell-based; conditions: Homo sapiens, light or radiation study
[6] = Dark toxicity in HUVEC assessed as reduction in cell viability by MTT assay; format: cell-based; conditions: human
[7] = Dark toxicity in mouse 4T1 cells assessed as reduction in cell viability by MTT assay; format: cell-based
[8] = system: MDA-MB-231; experiment: Induction of cell cycle arrest in human MDA-MB-231 cells assessed as accumulation at sub-G1 phase at 5 uM preincubated with 625 +/- 2 nanometer LED light irradiation for 1 hrs and measured after 24 hrs by RNase A/propidium iodide staining based flow cytometry analysis (reference value: 3.93 %); format: functional; conditions: time 25 hrs
[9] = system: MDA-MB-231; experiment: Induction of mitochondrial depolarization in human MDA-MB-231 cells at 2.5 uM preincubated for 4 hrs followed by 625 +/- 2 nanometer LED light irradiation for 1 hr and measured after 18 hrs by JC1 staining based fluorescence microscopy; format: functional, cell-based; conditions: time 23.0 hrs
[10] = Phototoxicity index, ratio of IC50 for cytotoxicity against HUVEC measured under dark condition to IC50 for phototoxicity against HUVEC upon LED light irradiation; conditions: human, read-out: Ratio IC50
[11] = Selectivity index, ratio of IC50 for HUVEC in presence of light irradiation to IC50 for human MDA-MB-231 cells in presence of light irradiation; format: toxicity; conditions: HUVEC and MDA-MB-231 cells, read-out: Ratio IC50
[12] = Drug uptake in human MDA-MB-231 cells at 10 uM incubated for 4 hrs by Hoechst 33342 staining based fluorescence microscopy; format: ADME, cell-based; conditions: mda-mb-231, 4 h
[13] = Induction of singlet oxygen generation in DMF solution assessed as singlet oxygen quantum yield at 1 uM irradiated with 625 +/- 2 nanometer laser light by DPBF-based assay; format: functional
[14] = system: MDA-MB-231; experiment: Induction of mitochondrial depolarization in human MDA-MB-231 cells at 2.5 uM in dark by JC1 staining based fluorescence microscopy; format: functional, cell-based
[15] = system: MDA-MB-231; experiment: Induction of apoptosis in human MDA-MB-231 cells assessed as necrotic cells at 2.5 uM under dark condition by annexin V-FITC/PI based flow cytometric analysis (reference value: 0.36 %); format: functional
[16] = system: MDA-MB-231; experiment: Induction of apoptosis in human MDA-MB-231 cells assessed as early apoptotic cells at 2.5 uM under dark condition by annexin V-FITC/PI based flow cytometric analysis (reference value: 0 %); format: functional
[17] = Drug localization in lysosome of human MDA-MB-231 cells at 20 uM incubated for 4 hrs by Lyso-tracker dye based confocal laser scanning microscopy; format: ADME, subcellular; conditions: mda-mb-231, 4 h
[18] = system: MDA-MB-231; experiment: Induction of apoptosis in human MDA-MB-231 cells assessed as necrotic cells at 2.5 uM preincubated for 4 hrs followed by 625 +/- 2 nanometer LED light irradiation for 1 hr and measured after 18 hrs by annexin V-FITC/PI based flow cytometric analysis (reference value: 0.41 %); format: functional; conditions: time 23 hrs
[19] = system: MDA-MB-231; experiment: Induction of cell cycle arrest in human MDA-MB-231 cells assessed as accumulation at G1 phase at 5 uM preincubated with 625 +/- 2 nanometer LED light irradiation for 1 hrs and measured after 24 hrs by RNase A/propidium iodide staining based flow cytometry analysis (reference value: 43.6 %); format: functional; conditions: time 25 hrs
[20] = system: MDA-MB-231; experiment: Phototoxicity against human MDA-MB-231 cells assessed as reduction in cell viability preincubated for 4 hrs followed by irradiation with 0.3 W/cm2 of 625 +/- 2 nanometer LED light for 1 hr and measured after 42 hrs by MTT assay; format: functional, cell-based; conditions: MDA-MB-231, light or radiation study
[21] = system: MDA-MB-231; experiment: Induction of cell cycle arrest in human MDA-MB-231 cells assessed as accumulation at sub-G1 phase at 5 uM measured after 24 hrs under dark condition by RNase A/propidium iodide staining based flow cytometry analysis (reference value: 2.56 %); format: functional
[22] = Absorption property of the compound in DMF assessed as Q band absorption wavelength at 1 uM by UV-visible spectrophotometric method; format: physicochemical
[23] = system: MDA-MB-231; experiment: Induction of cell cycle arrest in human MDA-MB-231 cells assessed as accumulation at S phase at 5 uM preincubated with 625 +/- 2 nanometer LED light irradiation for 1 hrs and measured after 24 hrs by RNase A/propidium iodide staining based flow cytometry analysis (reference value: 29.0 %); format: functional; conditions: time 25 hrs
[24] = Absorption property of the compound in DMF assessed as soret band molar extinction coefficient at 1 uM by UV-visible spectrophotometric method; format: physicochemical
[25] = Absorption property of the compound in DMF assessed as soret band molar attenuation coefficient at 1 uM by UV-visible spectrophotometric method; format: physicochemical
[26] = system: MDA-MB-231; experiment: Induction of apoptosis in human MDA-MB-231 cells assessed as viable cells at 2.5 uM under dark condition by annexin V-FITC/PI based flow cytometric analysis (reference value: 99.0 %); format: functional; conditions: read-out: Activity
[27] = system: MDA-MB-231; experiment: Induction of cell cycle arrest in human MDA-MB-231 cells assessed as accumulation at G2 phase at 5 uM preincubated with 625 +/- 2 nanometer LED light irradiation for 1 hrs and measured after 24 hrs by RNase A/propidium iodide staining based flow cytometry analysis (reference value: 22.1 %); format: functional; conditions: time 25 hrs
[28] = system: MDA-MB-231; experiment: Induction of cell cycle arrest in human MDA-MB-231 cells assessed as accumulation at G1 phase at 5 uM measured after 24 hrs under dark condition by RNase A/propidium iodide staining based flow cytometry analysis (reference value: 47.5 %); format: functional
[29] = system: MDA-MB-231; experiment: Induction of ROS generation in human MDA-MB-231 cells at 2.5 uM in dark by DCFH-DA staining based fluorescence microscopy; format: functional, cell-based
[30] = Absorption property of the compound in DMF assessed as soret band wavelength molar absorption coefficient at 1 uM by UV-visible spectrophotometric method; format: physicochemical
[31] = system: MDA-MB-231; experiment: Induction of apoptosis in human MDA-MB-231 cells assessed as late apoptotic cells at 2.5 uM preincubated for 4 hrs followed by 625 +/- 2 nanometer LED light irradiation for 1 hr and measured after 18 hrs by annexin V-FITC/PI based flow cytometric analysis (reference value: 1.34 %); format: functional; conditions: time 23 hrs
[32] = Absorption property of the compound in DMF assessed as Q band molar extinction coefficient at 1 uM by UV-visible spectrophotometric method; format: physicochemical
[33] = Dark toxicity in human MDA-MB-231 cells assessed as reduction in cell viability by MTT assay; format: cell-based
[34] = system: MDA-MB-231; experiment: Induction of cell cycle arrest in human MDA-MB-231 cells assessed as accumulation at S phase at 5 uM measured after 24 hrs under dark condition by RNase A/propidium iodide staining based flow cytometry analysis (reference value: 24.8 %); format: functional
[35] = system: MDA-MB-231; experiment: Induction of apoptosis in human MDA-MB-231 cells assessed as late apoptotic cells at 2.5 uM under dark condition by annexin V-FITC/PI based flow cytometric analysis (reference value: 0.67 %); format: functional
[36] = system: MDA-MB-231; experiment: Induction of apoptosis in human MDA-MB-231 cells assessed as early apoptotic cells at 2.5 uM preincubated for 4 hrs followed by 625 +/- 2 nanometer LED light irradiation for 1 hr and measured after 18 hrs by annexin V-FITC/PI based flow cytometric analysis (reference value: 0.27 %); format: functional; conditions: time 23 hrs
[37] = system: MDA-MB-231; experiment: Induction of cell cycle arrest in human MDA-MB-231 cells assessed as accumulation at G2 phase at 5 uM measured after 24 hrs under dark condition by RNase A/propidium iodide staining based flow cytometry analysis (reference value: 24.4 %); format: functional
[38] = Drug localization in mitochondria of human MDA-MB-231 cells at 20 uM incubated for 4 hrs by Mito-tracker dye based confocal laser scanning microscopy; format: ADME; conditions: mda-mb-231, 4 h
[39] = system: 4T1; experiment: Phototoxicity against mouse 4T1 cells assessed as reduction in cell viability preincubated for 4 hrs followed by irradiation with 0.3 W/cm2 of 625 +/- 2 nanometer LED light for 1 hr and measured after 42 hrs by MTT assay; format: functional, cell-based; conditions: 4T1, light or radiation study
[40] = Phototoxicity index, ratio of IC50 for cytotoxicity against mouse 4T1 cells measured under dark condition to IC50 for phototoxicity against mouse 4T1 cells upon LED light irradiation
[41] = system: MDA-MB-231; experiment: Induction of apoptosis in human MDA-MB-231 cells assessed as viable cells at 2.5 uM preincubated for 4 hrs followed by 625 +/- 2 nanometer LED light irradiation for 1 hr and measured after 18 hrs by annexin V-FITC/PI based flow cytometric analysis (reference value: 98.0 %); format: functional; conditions: MDA-MB-231, light or radiation study, time 23 hrs, read-out: Activity

Oc1ccc(-c2c3nc(c(-c4c(F)c(F)c(F)c(F)c4F)c4ccc([nH]4)c4ccc([nH]4)c(-c4c(F)c(F)c(F)c(F)c4F)c4ccc2[nH]4)C=C3)cc1
Drug uptake [1]: Tde
Ratio IC50 [2]: >238.1
Activity [3]: Active
Activity [4]: 427 nm
IC50 [5]: 9.32 µM
IC50 [6]: > 100 µM
IC50 [7]: > 100 µM
Activity [8]: 38.6%
Activity [9]: Active
selectivity ratio [10]: > 10.9
selectivity ratio [11]: 22.2
Drug uptake [12]: Active
Activity [13]: 0.55
Activity [14]: inactive
Activity [15]: 0.72%
Activity [16]: 0.013%
Drug uptake [17]: Active
Activity [18]: 5.29%
Activity [19]: 25.1%
IC50 [20]: 0.42 µM
Activity [21]: 2.84%
Activity [22]: 633 nm
Activity [23]: 18.1%
Activity [24]: 5.12 log
Activity [25]: 5.09 log
viability at 2.5 µM [26]: 98.3%
Activity [27]: 17.5%
Activity [28]: 46.7%
Activity [29]: inactive
Activity [30]: 443 nm
Activity [31]: 30.1%
Activity [32]: 4.62 log
IC50 [33]: > 100 µM
Activity [34]: 23.2%
Activity [35]: 1.01%
Activity [36]: 0.095%
Activity [37]: 26.1%
Drug uptake [38]: Active
IC50 [39]: 0.3 µM
Ratio IC50 [40]: >333.33
viability at 2.5 µM [41]: 64.5%

Oc1cccc(-c2c3nc(c(-c4c(F)c(F)c(F)c(F)c4F)c4ccc([nH]4)c4ccc([nH]4)c(-c4c(F)c(F)c(F)c(F)c4F)c4ccc2[nH]4)C=C3)c1
Ratio IC50 [2]: >60.98
Activity [4]: 428 nm
IC50 [5]: 0.89 µM
IC50 [6]: > 100 µM
IC50 [7]: > 100 µM
selectivity ratio [10]: > 112
selectivity ratio [11]: 0.54
Activity [13]: 0.46
IC50 [20]: 1.64 µM
Activity [22]: 633 nm
Activity [24]: 5.12 log
Activity [25]: 5.1 log
Activity [30]: 443 nm
Activity [32]: 4.61 log
IC50 [33]: > 100 µM
IC50 [39]: 0.57 µM
Ratio IC50 [40]: >175.44

Oc1cccc(-c2c3nc(c(-c4cccc(O)c4)c4ccc([nH]4)c(-c4cccc(O)c4)c4nc(c(-c5cccc(O)c5)c5ccc2[nH]5)CC4)C=C3)c1 [TEMOPORFIN]
Ratio IC50 [2]: 38.41
IC50 [5]: 1.5 µM
IC50 [6]: > 100 µM
IC50 [7]: 38 µM
selectivity ratio [10]: > 66.7
selectivity ratio [11]: 1.72
IC50 [20]: 0.87 µM
IC50 [33]: 33.4 µM
IC50 [39]: 0.05 µM
Ratio IC50 [40]: 760.2

Oc1ccccc1-c1c2nc(c(-c3c(F)c(F)c(F)c(F)c3F)c3ccc([nH]3)c3ccc([nH]3)c(-c3c(F)c(F)c(F)c(F)c3F)c3ccc1[nH]3)C=C2
Ratio IC50 [2]: 8.75
Activity [4]: 425 nm
IC50 [5]: 4.75 µM
IC50 [6]: > 100 µM
IC50 [7]: > 100 µM
selectivity ratio [10]: > 21.1
selectivity ratio [11]: 0.82
Activity [13]: 0.45
IC50 [20]: 5.81 µM
Activity [22]: 629 nm
Activity [24]: 5.11 log
Activity [25]: 5.08 log
Activity [30]: 441 nm
Activity [32]: 4.57 log
IC50 [33]: 50.8 µM
IC50 [39]: 0.46 µM
Ratio IC50 [40]: >217.39
